Calls of active or inactive are those of the source. The rule behind the calls is not given here.
Assays:
Liver microsomes [1] = assay: Metabolic stability in rat liver microsomes; format: ADME, Microsome
[2] = AUC (0 to infinity) in mouse at 5 mg/kg, iv; format: ADME, organism-based; parameters: time infinity, dose 5 mg/kg, route intravenous; conditions: plasma
[3] = Cmax in mouse at 5 mg/kg, iv; format: ADME, organism-based; parameters: dose 5 mg/kg, route intravenous; conditions: in vivo
Histamine H4 receptor [4] = molecular target: T1, Histamine H4 receptor (Mus musculus, UniProt Q91ZY2); assay: Antagonist activity at mouse histamine H4 receptor expressed in HEK293 cells assessed as inhibition of histamine-induced intracellular calcium elevation by FLIPR assay; format: functional, cell-based
T1 sequence (Q91ZY2 whole entry): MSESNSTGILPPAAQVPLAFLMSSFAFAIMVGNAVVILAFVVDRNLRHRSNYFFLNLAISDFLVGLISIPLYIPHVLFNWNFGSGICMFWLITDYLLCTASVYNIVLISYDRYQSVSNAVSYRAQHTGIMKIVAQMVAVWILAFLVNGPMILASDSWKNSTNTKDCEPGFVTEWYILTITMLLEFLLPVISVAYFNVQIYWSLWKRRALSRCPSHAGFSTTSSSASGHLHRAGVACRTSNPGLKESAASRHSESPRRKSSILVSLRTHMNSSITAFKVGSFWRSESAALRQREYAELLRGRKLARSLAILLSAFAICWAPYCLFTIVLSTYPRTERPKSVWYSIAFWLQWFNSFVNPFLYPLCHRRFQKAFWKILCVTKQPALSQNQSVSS

[5] = AUC (0 to t) in mouse at 20 mg/kg, sc; format: ADME, organism-based; parameters: dose 20 mg/kg, route subcutaneous; conditions: plasma
Cytochrome P450 2C9 = Cytochrome P450 2C9 (Homo sapiens, UniProt P11712); assay: Inhibition of CYP2C9 upto 10 uM; format: ADME
Cytochrome P450 2C9, sequence (P11712 whole entry): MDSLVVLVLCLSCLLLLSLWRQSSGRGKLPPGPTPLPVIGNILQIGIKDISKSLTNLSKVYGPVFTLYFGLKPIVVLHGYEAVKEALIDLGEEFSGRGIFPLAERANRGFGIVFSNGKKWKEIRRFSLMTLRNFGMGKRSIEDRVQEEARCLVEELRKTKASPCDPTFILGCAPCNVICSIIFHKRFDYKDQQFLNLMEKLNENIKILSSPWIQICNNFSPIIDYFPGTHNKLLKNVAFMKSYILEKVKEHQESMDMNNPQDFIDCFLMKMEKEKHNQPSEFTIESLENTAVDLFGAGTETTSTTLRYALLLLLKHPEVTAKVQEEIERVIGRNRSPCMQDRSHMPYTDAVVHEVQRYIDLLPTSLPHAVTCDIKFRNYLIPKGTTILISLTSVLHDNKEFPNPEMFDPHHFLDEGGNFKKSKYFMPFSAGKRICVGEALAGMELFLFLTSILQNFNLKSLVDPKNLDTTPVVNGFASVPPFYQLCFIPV

[6] = Protein binding in human; format: ADME, organism-based; conditions: in vivo, read-out: PB (converted)
Histamine H4 receptor [7] = molecular target: T2, Histamine H4 receptor (Homo sapiens, UniProt Q9H3N8); assay: Displacement of [3H]histamine from human histamine H4 receptor expressed in HEK293 cells; format: cell-based; conditions: read-out: pKi (converted)
T2 sequence (Q9H3N8 whole entry): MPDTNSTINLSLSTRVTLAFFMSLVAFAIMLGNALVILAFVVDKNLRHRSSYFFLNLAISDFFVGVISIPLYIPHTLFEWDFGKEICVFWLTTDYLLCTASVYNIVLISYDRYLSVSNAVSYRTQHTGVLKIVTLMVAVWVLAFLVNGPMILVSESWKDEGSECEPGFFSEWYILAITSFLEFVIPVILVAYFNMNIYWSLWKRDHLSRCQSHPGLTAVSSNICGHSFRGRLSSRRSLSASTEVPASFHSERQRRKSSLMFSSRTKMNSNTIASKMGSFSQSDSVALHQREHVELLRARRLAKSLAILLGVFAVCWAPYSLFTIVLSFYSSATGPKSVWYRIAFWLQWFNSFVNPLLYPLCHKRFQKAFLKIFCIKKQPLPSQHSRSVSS

Histamine H4 receptor [8] = molecular target: T3, Histamine H4 receptor (Rattus norvegicus, UniProt Q91ZY1); assay: Antagonist activity at rat histamine H4 receptor expressed in HEK293 cells assessed as inhibition of histamine-induced intracellular calcium elevation by FLIPR assay; format: functional, cell-based
T3 sequence (Q91ZY1 whole entry): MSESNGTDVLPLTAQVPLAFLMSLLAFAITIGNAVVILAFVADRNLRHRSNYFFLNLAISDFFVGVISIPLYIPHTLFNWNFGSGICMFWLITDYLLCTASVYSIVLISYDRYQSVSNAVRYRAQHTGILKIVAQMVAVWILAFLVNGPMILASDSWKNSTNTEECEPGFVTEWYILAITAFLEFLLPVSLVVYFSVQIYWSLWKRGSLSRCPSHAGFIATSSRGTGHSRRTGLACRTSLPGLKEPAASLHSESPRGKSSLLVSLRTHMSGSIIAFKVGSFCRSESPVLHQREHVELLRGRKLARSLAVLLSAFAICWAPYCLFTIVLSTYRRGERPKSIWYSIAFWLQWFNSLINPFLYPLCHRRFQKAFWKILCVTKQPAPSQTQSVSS

Cytochrome P450 3A4 = Cytochrome P450 3A4 (Homo sapiens, UniProt P08684); assay: Inhibition of CYP3A4 upto 10 uM; format: ADME
Cytochrome P450 3A4, sequence (P08684 whole entry): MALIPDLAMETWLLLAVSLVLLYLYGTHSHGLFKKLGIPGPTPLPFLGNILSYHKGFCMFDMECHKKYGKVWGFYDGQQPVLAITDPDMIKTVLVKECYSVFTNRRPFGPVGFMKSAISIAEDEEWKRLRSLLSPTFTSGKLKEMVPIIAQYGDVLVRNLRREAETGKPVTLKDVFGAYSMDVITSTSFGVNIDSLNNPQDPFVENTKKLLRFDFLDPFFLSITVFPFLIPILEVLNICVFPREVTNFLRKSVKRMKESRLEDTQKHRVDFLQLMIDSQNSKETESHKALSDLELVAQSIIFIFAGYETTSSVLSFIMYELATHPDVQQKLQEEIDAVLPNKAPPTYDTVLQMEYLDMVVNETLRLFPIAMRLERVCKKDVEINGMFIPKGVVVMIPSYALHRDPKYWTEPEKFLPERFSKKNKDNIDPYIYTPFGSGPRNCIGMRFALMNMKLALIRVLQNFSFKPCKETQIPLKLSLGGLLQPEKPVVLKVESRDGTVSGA

Mus musculus = assay: (§1) Plasma clearance in mouse at 5 mg/kg, iv; format: ADME, organism-based; parameters: dose 5 mg/kg, route intravenous; conditions: in vivo
Liver microsomes [9] = assay: Metabolic stability in human liver microsomes; format: ADME, Microsome
Histamine H4 receptor [10] = molecular target: T2, Histamine H4 receptor; conditions: HEK293
[11] = Protein binding in rat; format: ADME, organism-based; conditions: in vivo, read-out: PB (converted)
[12] = Cmax in mouse at 20 mg/kg, sc; format: ADME, organism-based; parameters: dose 20 mg/kg, route subcutaneous; conditions: in vivo
[13] = Tmax in mouse at 5 mg/kg, iv; format: ADME, organism-based; parameters: dose 5 mg/kg, route intravenous; conditions: in vivo
[14] = Metabolic stability in mouse liver microsomes; format: ADME, Microsome
Histamine H4 receptor [15] = molecular target: T3, Histamine H4 receptor; assay: Displacement of [3H]histamine from rat histamine H4 receptor expressed in HEK293 cells; format: cell-based
[16] = Oral bioavailability in mouse at 20 mg/kg, sc; format: ADME, organism-based; conditions: in vivo, subcutaneous
[17] = AUC (0 to t) in mouse at 5 mg/kg, iv; format: ADME, organism-based; parameters: dose 5 mg/kg, route intravenous; conditions: plasma
[18] = Half life in mouse at 5 mg/kg, iv; format: ADME, organism-based; parameters: dose 5 mg/kg, route intravenous; conditions: in vivo
[19] = AUC (0 to infinity) in mouse at 20 mg/kg, sc; format: ADME, organism-based; parameters: time infinity, dose 20 mg/kg, route subcutaneous; conditions: plasma
[20] = Tmax in mouse at 20 mg/kg, sc; format: ADME, organism-based; parameters: dose 20 mg/kg, route subcutaneous; conditions: in vivo
[21] = Half life in mouse at 20 mg/kg, sc; format: ADME, organism-based; parameters: dose 20 mg/kg, route subcutaneous; conditions: in vivo
Cytochrome P450 2D6 = Cytochrome P450 2D6 (Homo sapiens, UniProt P10635); assay: Inhibition of CYP2D6 upto 10 uM; format: ADME
Cytochrome P450 2D6, sequence (P10635 whole entry): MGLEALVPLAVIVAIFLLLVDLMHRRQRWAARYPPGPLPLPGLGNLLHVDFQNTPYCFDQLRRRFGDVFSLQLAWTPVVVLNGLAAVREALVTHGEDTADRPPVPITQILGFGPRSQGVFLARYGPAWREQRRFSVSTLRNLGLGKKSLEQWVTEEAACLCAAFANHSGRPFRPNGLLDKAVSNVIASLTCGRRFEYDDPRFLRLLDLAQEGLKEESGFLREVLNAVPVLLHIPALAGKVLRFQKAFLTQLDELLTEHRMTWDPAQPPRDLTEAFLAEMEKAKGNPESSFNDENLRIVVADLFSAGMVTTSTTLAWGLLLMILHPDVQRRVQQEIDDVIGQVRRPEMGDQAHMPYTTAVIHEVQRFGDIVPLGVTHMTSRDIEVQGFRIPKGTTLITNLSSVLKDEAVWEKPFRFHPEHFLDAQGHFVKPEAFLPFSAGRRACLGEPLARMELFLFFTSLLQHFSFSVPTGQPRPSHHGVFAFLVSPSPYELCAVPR

[22] = Terminal volume of distribution in mouse at 5 mg/kg, iv; format: ADME, organism-based; parameters: dose 5 mg/kg, route intravenous; conditions: in vivo, read-out: Vbeta
[23] = as §1; format: ADME, organism-based; parameters: dose 5 mg/kg, route intravenous; conditions: plasma
BMMC = assay: Blockade of histamine-induced morphological changes in BALB/c mouse BMMC by flow cytometry; format: functional, cell-based
Rattus norvegicus = assay: Antinociceptive efficacy in ip dosed spinal nerve ligated Sprague-Dawley rat assessed as reduction of neuropathic pain in paw; format: functional
[24] = Fractional bioavailability in rat at 5 mg/kg, iv and 5 mg/kg, po; format: ADME, organism-based; conditions: in vivo

Row | Compound | Stability (Liver microsomes [1]) [pmol/min/mg] | AUC(0-inf) [2] [µM·h] | Cmax [3] [nM] | AUC(0-t) [5] [µM·h] | Activity (Cytochrome P450 2C9) | fraction unbound [6] | Activity (Cytochrome P450 3A4) | Stability (Liver microsomes [9]) [pmol/min/mg] | fraction unbound [11] | Cmax [12] [nM] | Tmax [13] [min] | Stability [14] [pmol/min/mg] | bioavailability [16] [%] | AUC(0-t) [17] [µM·h] | half-life [18] [min] | AUC(0-inf) [19] [µM·h] | Tmax [20] [min] | half-life [21] [min] | Activity (Cytochrome P450 2D6) | other results
1 | O=C(c1cc2cc(Cl)ccc2[nH]1)N1CCNCC1 | 61.4 | 3.04 | 1120 | 11.8 | Not Active | 0.42 | Not Active | 26.6 | 0.35 | 2000 | 30 | 31.6 | 0 | 3.03 | 97.8 | 11.8 | 120 | 51.6 | Not Active | EC50 (Histamine H4 receptor [4]): 17.8 nM; Ki (Histamine H4 receptor [7]): 25.7 nM; EC50 (Histamine H4 receptor [8]): 30.9 nM; Activity (Mus musculus): Not Active; pKb (Histamine H4 receptor [10]): 7.74; Ki (Histamine H4 receptor [15]): 3.98 nM
2 | CN1CCN(C(=O)c2cc3cc(Cl)ccc3[nH]2)CC1 [JNJ-7777120] | 179 | 0.9 | 2220 | 2.79 | Not Active | 0.23 | Not Active | 19 | 0.28 | 500 | 6 | 143 | 77.6 | 0.9 | 22.8 | 2.79 | 30 | 58.2 | Not Active | Vd [22]: 11 L/kg; clearance [23]: 334 mL/min/kg; Activity (BMMC): Active; ED50 (Rattus norvegicus): 217 µmol/kg; bioavailability [24]: 24.1%

Reference: ChEMBL document CHEMBL1140165, “Rotationally constrained 2,4-diamino-5,6-disubstituted pyrimidines: a new class of histamine H4 receptor antagonists with improved druglikeness and in vivo efficacy in pain and inflammation models” (J Med Chem, 2008)
